Consider 5 compounds from paper PMC6690782 (Bioorganic & medicinal chemistry letters, 2019).

The conditions of data set [1]: cited from earlier work.
The next data set addresses LAT1 (Homo sapiens, UniProt Q01650). As to the kind of experiment: cis-inhibition assay: inhibition of [3H]-gabapentin uptake into HEK-hLAT1 cells. The note with it: for fold decrease in potency relative to corresponding histidine/tryptophan analog: cis-inhibition IC50, 7d vs 16, 13 vs 22. It is filed as cell-based.

A word on the inhibition: it is the relative decrease from the control value, in per cent.

Molecules are shown by their SMILES.

Sequence of LAT1 (Q01650 whole entry): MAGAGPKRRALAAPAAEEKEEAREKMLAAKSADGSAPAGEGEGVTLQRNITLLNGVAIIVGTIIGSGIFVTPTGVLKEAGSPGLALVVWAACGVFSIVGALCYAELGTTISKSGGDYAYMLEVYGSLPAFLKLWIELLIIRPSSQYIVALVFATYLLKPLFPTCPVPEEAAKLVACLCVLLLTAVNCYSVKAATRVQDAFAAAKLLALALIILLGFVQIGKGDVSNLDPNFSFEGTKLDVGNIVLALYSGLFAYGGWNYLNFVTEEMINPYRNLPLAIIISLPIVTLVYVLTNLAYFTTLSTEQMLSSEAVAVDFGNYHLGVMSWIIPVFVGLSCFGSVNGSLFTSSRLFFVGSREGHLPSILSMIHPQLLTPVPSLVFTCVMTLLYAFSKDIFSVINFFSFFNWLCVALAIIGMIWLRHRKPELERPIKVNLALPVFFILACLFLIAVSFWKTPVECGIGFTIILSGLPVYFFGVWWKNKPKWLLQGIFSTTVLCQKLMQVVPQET
Sequence of LAT1 (P08195 102-630 partner): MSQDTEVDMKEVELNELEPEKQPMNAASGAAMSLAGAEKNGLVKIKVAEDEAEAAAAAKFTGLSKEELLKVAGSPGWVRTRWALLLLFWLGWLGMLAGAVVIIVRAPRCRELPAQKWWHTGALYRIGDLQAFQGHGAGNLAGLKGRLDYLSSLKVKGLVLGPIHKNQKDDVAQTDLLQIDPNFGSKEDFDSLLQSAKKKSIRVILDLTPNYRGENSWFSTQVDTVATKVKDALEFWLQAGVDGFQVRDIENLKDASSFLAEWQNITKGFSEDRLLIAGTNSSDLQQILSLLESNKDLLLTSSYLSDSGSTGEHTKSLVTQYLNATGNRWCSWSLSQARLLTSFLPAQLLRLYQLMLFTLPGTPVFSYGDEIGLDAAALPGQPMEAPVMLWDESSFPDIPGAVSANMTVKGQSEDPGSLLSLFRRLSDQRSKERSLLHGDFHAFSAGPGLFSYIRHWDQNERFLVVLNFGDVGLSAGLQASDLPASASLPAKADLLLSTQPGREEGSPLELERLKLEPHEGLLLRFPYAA

In the case of `c1c[nH]nn1` [1,2,3-triazole], the “pKa of conjugate acid” value in data set [1] was 1.15.

As to `Cc1cn(C[C@H](N)C(=O)O)nn1` [Compound 7d], at LAT1, the “fold decrease in potency relative to corresponding histidine/tryptophan analog” value came out at 2 fold.

As for `N[C@@H](Cc1cn(Cc2ccccc2)nn1)C(=O)O` [Compound 11e], the inhibition at 200 µM at LAT1 is -19%.

As for `N[C@@H](Cn1nnc2ccccc21)C(=O)O` [Compound 13], on LAT1, the “fold decrease in potency relative to corresponding histidine/tryptophan analog” value worked out at 2 fold.

As for `N[C@@H](Cc1cn(Cc2ccccc2)cn1)C(=O)O` [Compound 17, reference compound], the inhibition at 200 µM on LAT1 came out at 74%.
